According to article PMC12090182, “Repurposing of the RIPK1-Selective Benzo[1,4]oxazepin-4-one Scaffold for the Development of a Type III LIMK1/2 Inhibitor” (ACS Chemical Biology, 2025):

Key:
Assay in all cases: scanMAX KINOMEscan (Eurofins)
Assay type in all cases: binding
EPHB6 = EPHB6 (Homo sapiens, UniProt O15197); details: 1000 nM, read-out: Percent Control
Excerpt: (§1) Supplement cb5c00097_si_002.xlsx, sheet "Table S6 (Eurofins Selectivity)" | column: Percent Control

DAPK3 = DAPK3 (Homo sapiens, UniProt O43293); details: 1000 nM, read-out: Percent Control
Excerpt: as §1

INSRR = INSRR (Homo sapiens, UniProt P14616); details: 1000 nM, read-out: Percent Control
Excerpt: as §1

SGK2 = SGK2 (Homo sapiens, UniProt Q9HBY8); details: 1000 nM, read-out: Percent Control
Excerpt: as §1

NIM1 = NIM1 (Homo sapiens, UniProt Q8IY84); details: compound concentration 100 nM; Entrez MGC42105; read-out: Percent Control
Excerpt: as §1

WEE2 = WEE2 (Homo sapiens, UniProt P0C1S8); details: 1000 nM, read-out: Percent Control
Excerpt: as §1

CDC2L1 = CDC2L1 (Homo sapiens, UniProt P21127); details: 1000 nM, read-out: Percent Control
Excerpt: as §1

NEK3 = NEK3 (Homo sapiens, UniProt P51956); details: 1000 nM, read-out: Percent Control
Excerpt: as §1

AMPK-alpha2 = AMPK-alpha2 (Homo sapiens, UniProt P54646); details: read-out: Percent Control
Excerpt: as §1

CAMKK1 = CAMKK1 (Homo sapiens, UniProt Q8N5S9); details: 1000 nM, read-out: Percent Control
Excerpt: as §1

[1] = target: JAK2(JH1domain-catalytic) (Homo sapiens, UniProt O60674); details: compound concentration 100 nM; Entrez JAK2; read-out: Percent Control
Excerpt: as §1

RIOK1 = RIOK1 (Homo sapiens, UniProt Q9BRS2); details: 1000 nM, read-out: Percent Control
Excerpt: as §1

MAP3K15 = MAP3K15 (Homo sapiens, UniProt Q6ZN16); details: compound concentration 100 nM; Entrez MAP3K15; read-out: Percent Control
Excerpt: as §1

BRAF = BRAF (Homo sapiens, UniProt P15056); details: 1000 nM, read-out: Percent Control
Excerpt: as §1

TAOK1 = TAOK1 (Homo sapiens, UniProt Q7L7X3); details: compound concentration 100 nM; Entrez TAOK1; read-out: Percent Control
Excerpt: as §1

CAMK2G = CAMK2G (Homo sapiens, UniProt Q13555); details: 1000 nM, read-out: Percent Control
Excerpt: as §1

ASK2 = ASK2 (Homo sapiens, UniProt O95382); details: 1000 nM, read-out: Percent Control
Excerpt: as §1

PKN1 = PKN1 (Homo sapiens, UniProt Q16512); details: read-out: Percent Control
Excerpt: as §1

WNK3 = WNK3 (Homo sapiens, UniProt Q9BYP7); details: 1000 nM, read-out: Percent Control
Excerpt: as §1

RAF1 = RAF1 (Homo sapiens, UniProt P04049); details: compound concentration 100 nM; Entrez RAF1; read-out: Percent Control
Excerpt: as §1

CIT = CIT (Homo sapiens, UniProt O14578); details: 1000 nM, read-out: Percent Control
Excerpt: as §1

STK33 = STK33 (Homo sapiens, UniProt Q9BYT3); details: compound concentration 100 nM; Entrez STK33; read-out: Percent Control
Excerpt: as §1

DCAMKL3 = DCAMKL3 (Homo sapiens, UniProt Q9C098); details: read-out: Percent Control
Excerpt: as §1

TXK = TXK (Homo sapiens, UniProt P42681); details: 1000 nM, read-out: Percent Control
Excerpt: as §1

CAMK1G = CAMK1G (Homo sapiens, UniProt Q96NX5); details: 1000 nM, read-out: Percent Control
Excerpt: as §1

NDR1 = NDR1 (Homo sapiens, UniProt Q15208); details: 1000 nM, read-out: Percent Control
Excerpt: as §1

CHEK1 = CHEK1 (Homo sapiens, UniProt O14757); details: read-out: Percent Control
Excerpt: as §1

NEK11 = NEK11 (Homo sapiens, UniProt Q8NG66); details: 1000 nM, read-out: Percent Control
Excerpt: as §1

MKNK1 = MKNK1 (Homo sapiens, UniProt Q9BUB5); details: 1000 nM, read-out: Percent Control
Excerpt: as §1

DLK = DLK (Homo sapiens, UniProt Q12852); details: 1000 nM, read-out: Percent Control
Excerpt: as §1

[2] = target: RSK4(Kin.Dom.2-C-terminal) (Homo sapiens, UniProt Q9UK32); details: 1000 nM, read-out: Percent Control
Excerpt: as §1

MYO3A = MYO3A (Homo sapiens, UniProt Q8NEV4); details: 1000 nM, read-out: Percent Control
Excerpt: as §1

ERN1 = ERN1 (Homo sapiens, UniProt O75460); details: read-out: Percent Control
Excerpt: as §1

ACVR2A = ACVR2A (Homo sapiens, UniProt P27037); details: read-out: Percent Control
Excerpt: as §1

TIE1 = TIE1 (Homo sapiens, UniProt P35590); details: 1000 nM, read-out: Percent Control
Excerpt: as §1

MAP3K3 = MAP3K3 (Homo sapiens, UniProt Q99759); details: 1000 nM, read-out: Percent Control
Excerpt: as §1

ABL2 = ABL2 (Homo sapiens, UniProt P42684); details: read-out: Percent Control
Excerpt: as §1

Sequence of AMPK-alpha2 (P54646 whole entry): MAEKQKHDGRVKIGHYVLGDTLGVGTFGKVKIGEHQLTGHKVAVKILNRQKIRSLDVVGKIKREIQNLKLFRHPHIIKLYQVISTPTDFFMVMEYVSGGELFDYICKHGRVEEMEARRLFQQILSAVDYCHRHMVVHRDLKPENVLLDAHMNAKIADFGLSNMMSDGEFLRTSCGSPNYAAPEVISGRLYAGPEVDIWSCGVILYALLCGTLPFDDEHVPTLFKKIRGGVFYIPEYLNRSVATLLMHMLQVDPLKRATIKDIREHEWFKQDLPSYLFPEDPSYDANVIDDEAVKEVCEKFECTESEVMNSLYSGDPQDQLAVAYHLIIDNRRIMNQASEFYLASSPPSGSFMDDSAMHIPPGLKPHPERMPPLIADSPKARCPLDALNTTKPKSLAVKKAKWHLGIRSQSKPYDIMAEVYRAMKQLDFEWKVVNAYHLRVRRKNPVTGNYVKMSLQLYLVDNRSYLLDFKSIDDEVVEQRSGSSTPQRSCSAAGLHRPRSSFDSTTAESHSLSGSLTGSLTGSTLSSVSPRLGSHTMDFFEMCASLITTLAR
Sequence of PKN1 (Q16512 whole entry): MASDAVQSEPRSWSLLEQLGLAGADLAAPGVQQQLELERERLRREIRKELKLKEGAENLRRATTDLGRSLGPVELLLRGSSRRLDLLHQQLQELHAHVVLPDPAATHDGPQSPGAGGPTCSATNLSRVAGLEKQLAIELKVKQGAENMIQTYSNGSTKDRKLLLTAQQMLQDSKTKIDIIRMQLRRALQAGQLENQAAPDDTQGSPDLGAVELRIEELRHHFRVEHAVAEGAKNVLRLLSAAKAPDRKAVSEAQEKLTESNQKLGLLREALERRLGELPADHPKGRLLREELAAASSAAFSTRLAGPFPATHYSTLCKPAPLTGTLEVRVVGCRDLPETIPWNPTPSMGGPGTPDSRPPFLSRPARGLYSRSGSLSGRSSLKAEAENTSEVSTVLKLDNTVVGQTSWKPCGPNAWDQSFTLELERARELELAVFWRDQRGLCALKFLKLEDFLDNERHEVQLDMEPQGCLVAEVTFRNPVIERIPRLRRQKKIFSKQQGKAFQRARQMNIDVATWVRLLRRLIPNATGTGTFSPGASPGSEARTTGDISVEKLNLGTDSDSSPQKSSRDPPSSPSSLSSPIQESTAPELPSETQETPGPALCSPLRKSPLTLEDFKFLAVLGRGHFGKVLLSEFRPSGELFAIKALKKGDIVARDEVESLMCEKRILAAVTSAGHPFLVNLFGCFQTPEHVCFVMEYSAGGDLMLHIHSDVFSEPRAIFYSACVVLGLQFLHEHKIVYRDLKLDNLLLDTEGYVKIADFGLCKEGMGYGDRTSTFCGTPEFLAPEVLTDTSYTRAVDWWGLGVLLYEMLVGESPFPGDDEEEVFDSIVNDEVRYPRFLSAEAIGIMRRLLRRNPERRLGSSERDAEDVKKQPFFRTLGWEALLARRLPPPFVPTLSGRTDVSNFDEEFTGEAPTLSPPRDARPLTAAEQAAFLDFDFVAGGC
Sequence of ERN1 (O75460 19-977): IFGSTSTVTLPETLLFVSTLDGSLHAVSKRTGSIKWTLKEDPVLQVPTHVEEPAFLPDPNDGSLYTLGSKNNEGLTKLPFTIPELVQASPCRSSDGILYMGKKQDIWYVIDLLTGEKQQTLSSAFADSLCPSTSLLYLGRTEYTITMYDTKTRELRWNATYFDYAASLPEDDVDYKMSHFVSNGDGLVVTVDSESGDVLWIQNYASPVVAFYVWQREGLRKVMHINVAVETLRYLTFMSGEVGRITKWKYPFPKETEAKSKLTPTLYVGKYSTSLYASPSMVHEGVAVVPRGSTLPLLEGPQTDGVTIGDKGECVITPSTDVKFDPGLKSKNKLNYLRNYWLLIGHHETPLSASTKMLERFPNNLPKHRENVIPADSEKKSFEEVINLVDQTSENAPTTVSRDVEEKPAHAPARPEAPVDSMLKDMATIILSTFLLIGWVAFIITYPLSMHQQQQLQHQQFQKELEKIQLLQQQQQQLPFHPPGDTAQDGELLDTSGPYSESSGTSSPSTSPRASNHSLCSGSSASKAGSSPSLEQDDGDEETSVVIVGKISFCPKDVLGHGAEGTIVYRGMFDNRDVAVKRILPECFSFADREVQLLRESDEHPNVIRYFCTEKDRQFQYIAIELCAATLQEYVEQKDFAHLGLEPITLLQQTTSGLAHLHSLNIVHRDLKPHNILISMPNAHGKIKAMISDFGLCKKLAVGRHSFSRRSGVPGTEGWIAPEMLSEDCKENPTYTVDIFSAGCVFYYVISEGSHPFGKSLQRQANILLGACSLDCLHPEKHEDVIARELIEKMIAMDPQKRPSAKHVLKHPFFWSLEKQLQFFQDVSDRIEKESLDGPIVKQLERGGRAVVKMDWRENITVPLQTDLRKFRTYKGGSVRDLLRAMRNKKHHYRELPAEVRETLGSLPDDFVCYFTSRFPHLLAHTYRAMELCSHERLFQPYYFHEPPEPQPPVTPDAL
Sequence of DCAMKL3 (Q9C098 whole entry): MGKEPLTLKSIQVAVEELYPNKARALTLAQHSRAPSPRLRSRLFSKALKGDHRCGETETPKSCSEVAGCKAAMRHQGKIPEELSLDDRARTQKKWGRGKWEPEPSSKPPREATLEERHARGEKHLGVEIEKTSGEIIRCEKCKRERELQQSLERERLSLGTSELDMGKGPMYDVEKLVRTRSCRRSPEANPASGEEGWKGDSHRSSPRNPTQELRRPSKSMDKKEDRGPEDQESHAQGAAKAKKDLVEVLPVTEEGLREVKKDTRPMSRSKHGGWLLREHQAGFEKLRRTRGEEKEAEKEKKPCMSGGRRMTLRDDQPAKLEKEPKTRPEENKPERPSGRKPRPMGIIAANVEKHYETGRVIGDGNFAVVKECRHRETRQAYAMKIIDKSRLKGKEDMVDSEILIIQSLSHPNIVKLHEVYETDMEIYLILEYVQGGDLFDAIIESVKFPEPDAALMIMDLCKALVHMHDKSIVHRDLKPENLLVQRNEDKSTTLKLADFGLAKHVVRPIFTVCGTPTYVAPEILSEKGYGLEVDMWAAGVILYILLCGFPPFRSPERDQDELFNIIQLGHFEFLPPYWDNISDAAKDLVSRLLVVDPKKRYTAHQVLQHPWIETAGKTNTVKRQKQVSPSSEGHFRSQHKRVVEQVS
Sequence of ABL2 (P42684 whole entry): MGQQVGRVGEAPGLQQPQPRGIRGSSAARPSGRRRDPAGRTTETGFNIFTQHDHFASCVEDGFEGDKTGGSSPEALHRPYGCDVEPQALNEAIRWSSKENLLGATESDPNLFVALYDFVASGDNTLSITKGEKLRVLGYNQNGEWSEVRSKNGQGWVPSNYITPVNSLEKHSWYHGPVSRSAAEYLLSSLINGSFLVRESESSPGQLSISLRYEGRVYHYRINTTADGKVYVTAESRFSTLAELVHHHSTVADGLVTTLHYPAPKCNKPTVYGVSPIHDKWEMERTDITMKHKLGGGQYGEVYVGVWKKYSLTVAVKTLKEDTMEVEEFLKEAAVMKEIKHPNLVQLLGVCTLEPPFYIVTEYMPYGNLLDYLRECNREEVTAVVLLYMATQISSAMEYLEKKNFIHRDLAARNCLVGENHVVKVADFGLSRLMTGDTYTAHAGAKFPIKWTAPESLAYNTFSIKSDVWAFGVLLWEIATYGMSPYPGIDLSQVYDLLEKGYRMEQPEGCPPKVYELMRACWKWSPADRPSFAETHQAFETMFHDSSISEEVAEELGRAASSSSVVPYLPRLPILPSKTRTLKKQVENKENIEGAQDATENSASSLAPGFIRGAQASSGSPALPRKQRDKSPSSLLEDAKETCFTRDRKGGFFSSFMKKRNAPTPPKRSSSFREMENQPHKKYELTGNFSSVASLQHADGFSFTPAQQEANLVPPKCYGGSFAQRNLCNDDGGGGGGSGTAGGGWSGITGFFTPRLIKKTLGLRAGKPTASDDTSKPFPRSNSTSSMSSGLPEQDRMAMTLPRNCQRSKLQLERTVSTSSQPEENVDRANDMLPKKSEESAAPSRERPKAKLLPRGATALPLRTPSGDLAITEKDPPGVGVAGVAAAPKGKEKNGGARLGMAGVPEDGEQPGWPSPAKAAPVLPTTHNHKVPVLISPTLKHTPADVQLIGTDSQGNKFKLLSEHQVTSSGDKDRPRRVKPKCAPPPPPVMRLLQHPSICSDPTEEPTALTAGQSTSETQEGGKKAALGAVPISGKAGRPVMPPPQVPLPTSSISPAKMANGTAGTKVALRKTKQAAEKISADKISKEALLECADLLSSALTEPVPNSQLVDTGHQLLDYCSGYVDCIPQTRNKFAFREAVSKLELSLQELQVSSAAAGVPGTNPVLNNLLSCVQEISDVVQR
Sequence of CHEK1 (O14757 whole entry): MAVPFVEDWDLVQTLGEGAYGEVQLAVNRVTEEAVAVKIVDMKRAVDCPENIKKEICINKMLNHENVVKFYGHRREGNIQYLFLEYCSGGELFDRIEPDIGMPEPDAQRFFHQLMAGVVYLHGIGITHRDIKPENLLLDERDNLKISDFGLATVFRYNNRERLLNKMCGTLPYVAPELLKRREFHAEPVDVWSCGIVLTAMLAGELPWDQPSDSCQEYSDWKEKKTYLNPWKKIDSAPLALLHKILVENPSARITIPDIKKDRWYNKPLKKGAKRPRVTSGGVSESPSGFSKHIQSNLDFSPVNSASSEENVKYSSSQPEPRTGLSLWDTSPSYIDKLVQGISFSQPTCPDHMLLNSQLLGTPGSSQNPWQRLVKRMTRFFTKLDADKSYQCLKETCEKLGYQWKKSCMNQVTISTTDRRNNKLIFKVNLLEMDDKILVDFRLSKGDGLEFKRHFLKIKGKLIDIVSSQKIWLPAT
Sequence of JAK2(JH1domain-catalytic) (O60674 840-1132): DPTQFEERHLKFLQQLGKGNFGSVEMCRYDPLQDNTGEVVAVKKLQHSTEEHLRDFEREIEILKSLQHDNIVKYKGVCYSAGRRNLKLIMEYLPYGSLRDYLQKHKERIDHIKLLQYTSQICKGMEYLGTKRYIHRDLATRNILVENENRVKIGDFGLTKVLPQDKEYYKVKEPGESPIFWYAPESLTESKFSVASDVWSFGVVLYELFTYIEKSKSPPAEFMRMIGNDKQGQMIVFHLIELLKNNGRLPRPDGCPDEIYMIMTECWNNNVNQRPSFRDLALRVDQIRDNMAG

In the case of `CN1C(=O)[C@@H](N2CCc3c(nn(Cc4ccccc4)c3C(N)=O)C2=O)COc2cc(Cl)ccc21` [Compound 10, (S)-2-benzyl-6-(8-chloro-5-methyl-4-oxo-2,3,4,5-tetrahydrobenzo[b][1,4]oxazepin-3-yl)-7-oxo-4,5,6,7-tetrahydro-2H-pyrazolo[3,4-c]pyridine-3-carboxamide], the remaining binding at 1 µM (EPHB6) is reported as 94%, the remaining binding at 1 µM (DAPK3) is reported as 87% and the remaining binding at 1 µM (INSRR) is reported as 76%. It also gave a remaining binding at 1 µM (SGK2) of 95%, a remaining binding at 0.1 µM (NIM1) of 99% and a remaining binding at 1 µM (WEE2) of 82%. The remaining binding at 1 µM (CDC2L1) was 83%, the remaining binding at 1 µM (NEK3) was 86% and the remaining binding at 1 µM (AMPK-alpha2; 1000 nM) was 100%. For the same compound, the remaining binding at 0.1 µM (AMPK-alpha2; compound concentration 100 nM, Entrez PRKAA2) was 100%, the remaining binding at 1 µM (CAMKK1) was 74% and the remaining binding at 0.1 µM [1] was 81%. It also gave a remaining binding at 1 µM (RIOK1) of 85%, a remaining binding at 0.1 µM (MAP3K15) of 71% and a remaining binding at 1 µM (BRAF) of 79%. For the same compound, the remaining binding at 0.1 µM (TAOK1) was 100%, the remaining binding at 1 µM (CAMK2G) was 84% and the remaining binding at 1 µM (ASK2) was 90%. It also gave a remaining binding at 1 µM (PKN1; 1000 nM) of 98%, a remaining binding at 0.1 µM (PKN1; compound concentration 100 nM, Entrez PKN1) of 86% and a remaining binding at 1 µM (WNK3) of 69%. It also gave a remaining binding at 0.1 µM (RAF1) of 100%, a remaining binding at 1 µM (CIT) of 79% and a remaining binding at 0.1 µM (STK33) of 80%. For the same compound, the remaining binding at 1 µM (DCAMKL3; 1000 nM) was 100%, the remaining binding at 0.1 µM (DCAMKL3; compound concentration 100 nM, Entrez DCLK3) was 75% and the remaining binding at 1 µM (TXK) was 86%. The remaining binding at 1 µM (CAMK1G) was 88%, the remaining binding at 1 µM (NDR1) was 97% and the remaining binding at 1 µM (CHEK1; 1000 nM) was 100%. It also gave a remaining binding at 0.1 µM (CHEK1; compound concentration 100 nM, Entrez CHEK1) of 86%, a remaining binding at 1 µM (NEK11) of 78% and a remaining binding at 1 µM (MKNK1) of 77%. It also gave a remaining binding at 1 µM (DLK) of 81%, a remaining binding at 1 µM [2] of 93% and a remaining binding at 1 µM (MYO3A) of 94%. It also gave a remaining binding at 1 µM (ERN1; 1000 nM) of 100%, a remaining binding at 0.1 µM (ERN1; compound concentration 100 nM, Entrez ERN1) of 100% and a remaining binding at 1 µM (ACVR2A; 1000 nM) of 100%. The remaining binding at 0.1 µM (ACVR2A; compound concentration 100 nM, Entrez ACVR2A) was 100%, the remaining binding at 1 µM (TIE1) was 94% and the remaining binding at 1 µM (MAP3K3) was 94%. The remaining binding at 1 µM (ABL2; 1000 nM) was 100% and the remaining binding at 0.1 µM (ABL2; compound concentration 100 nM, Entrez ABL2) was 100%.
